Assay results taken from ChEMBL document CHEMBL4229543, “Squaramides as novel class I and IIB histone deacetylase inhibitors for topical treatment of cutaneous t-cell lymphoma” (Bioorg Med Chem Lett, 2018).
Converted amounts (≈) assume the structure as drawn.

Assays:
[1] = Solubility in PG/EtOH (96%) at 30 mg/mL after 24 hrs by UV-spectrometric method; assay type: physicochemical; details: PG/EtOH (96%)
HuT78 = assay: Pro-apoptotic activity in human HUT78 cells after 18 hrs by caspase-Glo 3/7 assay; assay type: functional, cell-based; details: HuT78, 18 h
Histone deacetylase 9 = Histone deacetylase 9 (Homo sapiens, UniProt Q9UKV0); assay: Inhibition of human recombinant HDAC9 using fluorogenic HDAC substrate class 2a after 30 mins by fluorimetrc method
[2] = target: T1, Polyamine deacetylase HDAC10 (Homo sapiens, UniProt Q969S8); assay: Inhibition of human recombinant HDAC10 using fluorogenic HDAC substrate after 45 mins by fluorimetrc method
T1 sequence (Q969S8 whole entry): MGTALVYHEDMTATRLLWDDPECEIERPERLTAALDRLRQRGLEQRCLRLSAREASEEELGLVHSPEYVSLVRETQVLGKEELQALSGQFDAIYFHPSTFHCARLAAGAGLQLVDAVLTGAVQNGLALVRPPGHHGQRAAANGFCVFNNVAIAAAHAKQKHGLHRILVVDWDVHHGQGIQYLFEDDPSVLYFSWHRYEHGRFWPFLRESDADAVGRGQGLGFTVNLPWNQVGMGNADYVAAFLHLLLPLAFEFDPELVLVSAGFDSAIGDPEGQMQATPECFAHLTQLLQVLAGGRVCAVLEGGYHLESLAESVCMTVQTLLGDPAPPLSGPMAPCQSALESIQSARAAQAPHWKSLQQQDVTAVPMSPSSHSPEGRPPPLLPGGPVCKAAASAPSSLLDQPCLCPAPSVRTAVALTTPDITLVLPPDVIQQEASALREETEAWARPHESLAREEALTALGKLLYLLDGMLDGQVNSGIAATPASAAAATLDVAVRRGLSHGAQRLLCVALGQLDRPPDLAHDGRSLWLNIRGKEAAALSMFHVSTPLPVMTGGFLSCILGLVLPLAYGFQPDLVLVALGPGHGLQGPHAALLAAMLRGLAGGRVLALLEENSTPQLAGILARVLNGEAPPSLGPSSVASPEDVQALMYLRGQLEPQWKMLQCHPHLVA

[3] = target: T2, NAD-dependent protein deacetylase sirtuin-3, mitochondrial (Homo sapiens, UniProt Q9NTG7); assay: Inhibition of human recombinant SIRT3 using fluoro-lysine sirtuin 2 deacetylase substrate after 45 mins by fluorimetrc method
T2 sequence (Q9NTG7 whole entry): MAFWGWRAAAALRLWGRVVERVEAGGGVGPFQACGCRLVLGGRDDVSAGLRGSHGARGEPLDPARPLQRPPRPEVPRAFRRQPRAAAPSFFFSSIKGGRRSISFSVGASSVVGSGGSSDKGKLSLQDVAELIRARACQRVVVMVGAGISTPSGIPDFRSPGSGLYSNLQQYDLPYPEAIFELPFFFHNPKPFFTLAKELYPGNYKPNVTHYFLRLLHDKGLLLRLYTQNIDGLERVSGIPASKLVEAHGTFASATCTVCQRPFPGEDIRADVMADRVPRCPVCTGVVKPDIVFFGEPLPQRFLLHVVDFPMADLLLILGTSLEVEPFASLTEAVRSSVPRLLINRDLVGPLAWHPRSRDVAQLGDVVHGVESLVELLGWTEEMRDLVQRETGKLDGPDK

Chain of Histone deacetylase 9 (Q9UKV0 whole entry): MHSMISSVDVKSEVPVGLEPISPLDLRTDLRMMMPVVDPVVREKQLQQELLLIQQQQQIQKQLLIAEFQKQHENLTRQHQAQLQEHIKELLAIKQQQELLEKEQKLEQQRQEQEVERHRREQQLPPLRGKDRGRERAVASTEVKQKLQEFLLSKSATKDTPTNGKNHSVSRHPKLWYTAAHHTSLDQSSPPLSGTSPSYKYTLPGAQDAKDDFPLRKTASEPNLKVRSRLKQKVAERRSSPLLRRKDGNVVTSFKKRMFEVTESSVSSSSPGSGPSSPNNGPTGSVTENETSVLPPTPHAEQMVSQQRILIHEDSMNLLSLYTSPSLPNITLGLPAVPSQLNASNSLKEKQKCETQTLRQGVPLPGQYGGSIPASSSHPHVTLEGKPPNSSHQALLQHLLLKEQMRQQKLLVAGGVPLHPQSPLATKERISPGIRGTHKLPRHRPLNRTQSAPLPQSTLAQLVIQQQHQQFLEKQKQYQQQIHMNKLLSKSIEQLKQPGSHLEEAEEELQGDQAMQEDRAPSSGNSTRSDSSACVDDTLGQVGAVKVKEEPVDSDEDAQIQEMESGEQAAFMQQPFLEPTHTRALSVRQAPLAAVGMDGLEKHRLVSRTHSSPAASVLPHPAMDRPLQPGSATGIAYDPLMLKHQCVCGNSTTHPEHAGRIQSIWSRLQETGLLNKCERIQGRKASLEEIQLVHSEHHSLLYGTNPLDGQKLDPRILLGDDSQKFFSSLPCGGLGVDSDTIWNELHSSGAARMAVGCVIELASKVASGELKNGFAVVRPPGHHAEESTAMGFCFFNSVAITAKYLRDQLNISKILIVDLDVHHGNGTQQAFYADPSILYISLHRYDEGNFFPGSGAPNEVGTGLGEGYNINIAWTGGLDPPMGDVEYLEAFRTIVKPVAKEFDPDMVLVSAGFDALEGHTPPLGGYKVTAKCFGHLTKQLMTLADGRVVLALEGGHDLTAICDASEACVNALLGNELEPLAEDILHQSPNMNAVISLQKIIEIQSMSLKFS

Row | SMILES | solubility at 24 h [1] [mM] | EC50 (HuT78) [nM] | Ki (Histone deacetylase 9) [nM] | Ki [2] [nM] | Ki [3] [nM]
1 | COc1ccc(Nc2c(NCCCCCC(=O)NO)c(=O)c2=O)cc1 | 0.3 (≈ 0.104 mg/mL) | 4.9 | > 10000 | 1.2 | > 10000
2 | CC(Nc1c(NCCCCCC(=O)NO)c(=O)c1=O)C12CC3CC(CC(C3)C1)C2 (stereo not given) | 39 (≈ 15.7 mg/mL) | 98 | > 10000 | 50 | > 10000
3 | CC(C)(CCCCC(=O)NO)Nc1c(Nc2ccc(C(F)(F)F)cc2)c(=O)c1=O | 30 (≈ 12.4 mg/mL) | 7.3 | > 10000 | 3 | > 10000
